According to US8541418B2, “Inhibitors of polo-like kinase” (Elan Pharmaceutical, Inc., priority 2009, dated 2013):
Like-named read-outs stand apart in the source and are kept apart here.

What was measured:
Format in all cases: biochemical
[1] = target: PLK1 (Homo sapiens, UniProt P53350); test: PLK TR-FRET peptide assay, PLK1; conditions: GST-PLK1, 60 min reaction
[2] = target: PLK2 (Homo sapiens, UniProt Q9NYY3); test: PLK TR-FRET peptide assay, PLK2; conditions: for IC50: PLK TR-FRET peptide assay, GST-PLK2, 60 min reaction, read-out: Plk2 IC50; for relative PLK2 activity of the enantiomers: compared with the opposite enantiomer
PLK2, sequence (Q9NYY3 whole entry): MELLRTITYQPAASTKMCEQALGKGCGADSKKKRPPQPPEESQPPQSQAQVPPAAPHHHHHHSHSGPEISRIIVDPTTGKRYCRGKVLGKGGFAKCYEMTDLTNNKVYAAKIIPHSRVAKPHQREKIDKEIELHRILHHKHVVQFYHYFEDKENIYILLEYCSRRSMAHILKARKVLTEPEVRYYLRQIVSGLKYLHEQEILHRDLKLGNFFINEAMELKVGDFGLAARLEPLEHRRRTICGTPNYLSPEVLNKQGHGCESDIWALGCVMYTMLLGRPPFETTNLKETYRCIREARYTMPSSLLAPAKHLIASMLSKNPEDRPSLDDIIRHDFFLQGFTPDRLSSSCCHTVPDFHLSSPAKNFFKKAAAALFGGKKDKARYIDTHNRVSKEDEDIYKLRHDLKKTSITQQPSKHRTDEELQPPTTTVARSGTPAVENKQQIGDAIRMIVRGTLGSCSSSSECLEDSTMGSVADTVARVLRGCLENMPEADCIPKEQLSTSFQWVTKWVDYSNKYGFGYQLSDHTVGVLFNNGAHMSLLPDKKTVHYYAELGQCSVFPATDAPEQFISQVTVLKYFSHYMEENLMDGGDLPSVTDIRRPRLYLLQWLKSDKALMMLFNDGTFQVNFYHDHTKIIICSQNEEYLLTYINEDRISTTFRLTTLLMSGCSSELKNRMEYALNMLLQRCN

[3] = target: PLK3 (Homo sapiens, UniProt Q9H4B4); test: PLK TR-FRET peptide assay, PLK3
PLK3, sequence (Q9H4B4 whole entry): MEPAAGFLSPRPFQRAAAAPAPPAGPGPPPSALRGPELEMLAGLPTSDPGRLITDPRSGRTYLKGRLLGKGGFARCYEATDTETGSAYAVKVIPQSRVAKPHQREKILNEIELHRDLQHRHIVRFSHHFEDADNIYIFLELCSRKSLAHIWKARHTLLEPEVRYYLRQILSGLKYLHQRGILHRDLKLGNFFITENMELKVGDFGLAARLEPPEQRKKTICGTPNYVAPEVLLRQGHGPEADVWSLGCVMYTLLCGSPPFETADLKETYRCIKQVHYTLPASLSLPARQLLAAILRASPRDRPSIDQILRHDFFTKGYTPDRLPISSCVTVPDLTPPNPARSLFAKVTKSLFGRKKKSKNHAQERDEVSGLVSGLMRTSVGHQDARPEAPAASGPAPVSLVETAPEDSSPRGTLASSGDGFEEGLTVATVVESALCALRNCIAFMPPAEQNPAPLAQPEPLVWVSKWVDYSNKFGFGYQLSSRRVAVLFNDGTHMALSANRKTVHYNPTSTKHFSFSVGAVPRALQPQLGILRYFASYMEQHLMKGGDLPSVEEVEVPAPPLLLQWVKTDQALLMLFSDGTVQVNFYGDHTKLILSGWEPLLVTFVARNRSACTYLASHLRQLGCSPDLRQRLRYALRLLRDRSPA

[4] = GST-PLK3, 15 min reaction, read-out: Plk3 IC50
[5] = read-out: Plk3 IC50, GST-PLK3, 15 min reaction

PLK1, sequence (P53350 whole entry): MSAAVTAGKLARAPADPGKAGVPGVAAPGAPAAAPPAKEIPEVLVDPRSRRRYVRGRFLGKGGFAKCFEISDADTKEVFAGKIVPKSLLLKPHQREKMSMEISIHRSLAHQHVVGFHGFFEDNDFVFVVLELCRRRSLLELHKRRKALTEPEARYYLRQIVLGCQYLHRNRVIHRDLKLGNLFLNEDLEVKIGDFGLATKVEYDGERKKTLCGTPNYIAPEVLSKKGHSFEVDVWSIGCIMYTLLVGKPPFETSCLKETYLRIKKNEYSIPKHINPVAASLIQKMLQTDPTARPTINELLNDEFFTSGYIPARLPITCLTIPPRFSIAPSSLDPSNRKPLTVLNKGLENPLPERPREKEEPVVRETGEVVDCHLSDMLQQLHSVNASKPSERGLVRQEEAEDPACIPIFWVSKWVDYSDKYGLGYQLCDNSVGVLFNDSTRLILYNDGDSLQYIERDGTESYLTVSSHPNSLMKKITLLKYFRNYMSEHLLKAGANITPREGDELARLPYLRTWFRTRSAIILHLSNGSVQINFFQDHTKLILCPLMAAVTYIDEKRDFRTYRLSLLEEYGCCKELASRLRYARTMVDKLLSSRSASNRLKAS

Row | IC50 [1] [µM] | IC50 [2] [µM] | relative PLK2 activity of the enantiomers [2] | Compound | other results
1 | 10 to 50 | 1 to 10 | – | CC[C@@H]1C(=O)N(C)c2cnc(-c3cccc4cc[nH]c34)nc2N1C1CCCC1 [Example 10, (R)-8-cyclopentyl-7-ethyl-2-(1H-indol-7-yl)-5-methyl-7,8-dihydropteridin-6(5H)-one] | –
2 | > 50 | > 50 | – | CCOC(=O)c1cnn(-c2ncc3c(n2)N(C2CCCC2)[C@H](CC)C(=O)N3)c1 [Example 30, (R)-ethyl 1-(8-cyclopentyl-7-ethyl-6-oxo-5,6,7,8-tetrahydropteridin-2-yl)-1H-pyrazole-4-carboxylate] | –
3 | – | < 1 | – | CCC1C(=O)N(C)c2cnc(-n3ccnc3-c3ccc(F)cc3)nc2N1c1cccc(C#N)c1 (stereo not drawn) [Example 332] | IC50 [3, 4]: 1 to 10 µM
4 | – | – | more active compound | CC[C@@]12COCCN1c1nc(-c3cn[nH]c3-c3nccs3)ncc1N(C)C2=O [Example 344, (S)-6a-ethyl-5-methyl-2-(5-(thiazol-2-yl)-1H-pyrazol-4-yl)-6a,7,9,10-tetrahydro-[1,4]oxazino[3,4-h]pteridin-6(5H)-one] | –
5 | > 50 | 10 to 50 | – | CN1C(=O)[C@H]2CCCCN2c2nc(-c3ccncc3)ncc21 [Example 25, (R)-5-methyl-2-(pyridin-4-yl)-7,8,9,10-tetrahydro-5H-pyrido[2,1-h]pteridin-6(6aH)-one] | –
6 | – | – | more active compound | CC[C@@]12COCCN1c1nc(-c3snnc3-c3ccccc3)ncc1N(C)C2=O [Example 368, (S)-6a-ethyl-5-methyl-2-(4-phenyl-1,2,3-thiadiazol-5-yl)-6a,7,9,10-tetrahydro-[1,4]oxazino[3,4-h]pteridin-6(5H)-one] | –
7 | – | – | more active compound | CC[C@@]12COCCN1c1nc(-n3ccnc3-c3ccccc3)ncc1NC2=O [Example 418, (S)-6a-ethyl-2-(2-phenyl-1H-imidazol-1-yl)-6a,7,9,10-tetrahydro-[1,4]oxazino[3,4-h]pteridin-6(5H)-one] | –
8 | – | – | – | CCC1(C)C(=O)N(C)c2cnc(-n3ccnc3-c3ccc(F)cc3)nc2N1CCC(F)(F)F (stereo not drawn) [Example 279, 7-ethyl-2-(2-(4-fluorophenyl)-1H-imidazol-1-yl)-5,7-dimethyl-8-(3,3,3-trifluoropropyl)-7,8-dihydropteridin-6(5H)-one] | IC50 [3, 5]: 10 to 50 µM
9 | 1 to 10 | 1 to 10 | – | CC[C@@H]1C(=O)N(C)c2cnc(-c3ccccn3)nc2N1C1CCCC1 [Example 8, (R)-8-cyclopentyl-7-ethyl-5-methyl-2-(pyridin-2-yl)-7,8-dihydropteridin-6(5H)-one] | –
10 | – | – | more active compound | CC[C@@]12COCCN1c1nc(-n3ccnc3-c3ccc(F)cn3)ncc1N(C)C2=O [Example 380, (S)-6a-ethyl-2-(2-(5-fluoropyridin-2-yl)-1H-imidazol-1-yl)-5-methyl-6a,7,9,10-tetrahydro-[1,4]oxazino[3,4-h]pteridin-6(5H)-one] | –
11 | < 1 | < 1 | – | CC[C@@H]1C(=O)N(C)c2cnc(-n3cnc4ccccc43)nc2N1C1CCCC1 [Example 4, (R)-2-(1H-benzo[d]imidazol-1-yl)-8-cyclopentyl-7-ethyl-5-methyl-7,8-dihydropteridin-6(5H)-one] | –
12 | 10 to 50 | 10 to 50 | – | CC[C@@H]1C(=O)N(C)c2cnc(N3CCCCC3)nc2N1C1CCCC1 [Example 2, (R)-8-cyclopentyl-7-ethyl-5-methyl-2-(piperidin-1-yl)-7,8-dihydropteridin-6(5H)-one] | –
13 | – | – | more active compound | CC[C@@H]1C(=O)N(C)c2cnc(-n3ccnc3-c3ccc(F)cc3)nc2N1c1ccn(C)n1 [Example 407, (R)-7-ethyl-2-(2-(4-fluorophenyl)-1H-imidazol-1-yl)-5-methyl-8-(1-methyl-1H-pyrazol-3-yl)-7,8-dihydropteridin-6(5H)-one] | –
14 | – | – | more active compound | CC[C@@]12COCCN1c1nc(-n3ccnc3-c3ccc(F)cc3F)ncc1N(C)C2=O [Example 376, (S)-2-(2-(2,4-difluorophenyl)-1H-imidazol-1-yl)-6a-ethyl-5-methyl-6a,7,9,10-tetrahydro-[1,4]oxazino[3,4-h]pteridin-6(5H)-one] | –
15 | – | – | more active compound | CC[C@@]12COCCN1c1nc(-c3snnc3-c3ccc(F)cc3F)ncc1N(C)C2=O [Example 397, (S)-2-(4-(2,4-difluorophenyl)-1,2,3-thiadiazol-5-yl)-6a-ethyl-5-methyl-6a,7,9,10-tetrahydro-[1,4]oxazino[3,4-h]pteridin-6(5H)-one] | –
16 | – | – | more active compound | CC[C@@]12COCCN1c1nc(-c3ccncc3-c3ccccc3)ncc1N(C)C2=O [Example 394, (S)-6a-ethyl-5-methyl-2-(3-phenylpyridin-4-yl)-6a,7,9,10-tetrahydro-[1,4]oxazino[3,4-h]pteridin-6(5H)-one] | –

Row | IC50 [1] [µM] | IC50 [2] [µM] | relative PLK2 activity of the enantiomers [2] | Compound | other results
17 | > 50 | 10 to 50 | – | CC[C@@H]1C(=O)N(C)c2cnc(-c3cccc4cccnc34)nc2N1C1CCCC1 [Example 11, (R)-8-cyclopentyl-7-ethyl-5-methyl-2-(quinolin-8-yl)-7,8-dihydropteridin-6(5H)-one] | –
18 | < 1 | < 1 | – | CC[C@@H]1C(=O)N(C)c2cnc(-c3ccnc(OC)c3)nc2N1C1CCCC1 [Example 15, (R)-8-cyclopentyl-7-ethyl-2-(2-methoxypyridin-4-yl)-5-methyl-7,8-dihydropteridin-6(5H)-one] | –
19 | < 1 | – | – | CC[C@@H]1C(=O)N(C)c2cnc(-c3ccccc3-c3ccccc3)nc2N1C1CCCC1 [Example 70, (R)-2-(biphenyl-2-yl)-8-cyclopentyl-7-ethyl-5-methyl-7,8-dihydropteridin-6(5H)-one] | IC50 [3, 4]: < 1 µM
20 | > 50 | > 50 | – | CN1C(=O)[C@H]2CCCCN2c2nc(-n3ccnc3)ncc21 [Example 24, (R)-2-(1H-imidazol-1-yl)-5-methyl-7,8,9,10-tetrahydro-5H-pyrido[2,1-h]pteridin-6(6aH)-one] | –
21 | < 1 | 1 to 10 | – | CC[C@@H]1C(=O)N(C)c2cnc(-c3cc4ccccc4[nH]3)nc2N1C1CCCC1 [Example 9, (R)-8-cyclopentyl-7-ethyl-2-(1H-indol-2-yl)-5-methyl-7,8-dihydropteridin-6(5H)-one] | –
22 | – | – | – | CC(C)N1c2nc(-n3ccnc3-c3ccc(F)cc3)ncc2N(C)C(=O)C12CCC2 [Example 290, 2′-(2-(4-fluorophenyl)-1H-imidazol-1-yl)-8′-isopropyl-5′-methyl-5′H-Spiro[cyclobutane-1,7′-pteridin]-6′(8′H)-one] | IC50 [3, 5]: 10 to 50 µM
23 | < 1 | < 1 | – | CC[C@@H]1C(=O)N(C)c2cnc(-c3ccc[nH]3)nc2N1C1CCCC1 [Example 6, (R)-8-cyclopentyl-7-ethyl-5-methyl-2-(1H-pyrrol-2-yl)-7,8-dihydropteridin-6(5H)-one] | –
24 | 1 to 10 | – | – | CC[C@@]12CCCN1c1nc(-n3ccnc3-c3cccc(Br)c3)ncc1N(C)C2=O [Example 252, (S)-2-(2-(3-bromophenyl)-1H-imidazol-1-yl)-6a-ethyl-5-methyl-6a,7,8,9-tetrahydropyrrolo[2,1-h]pteridin-6(5H)-one] | IC50 [3, 4]: 10 to 50 µM
25 | 10 to 50 | 1 to 10 | – | CC[C@@H]1C(=O)N(C)c2cnc(N3CCCC3)nc2N1C1CCCC1 [Example 1, (R)-8-cyclopentyl-7-ethyl-5-methyl-2-(pyrrolidin-1-yl)-7,8-dihydropteridin-6(5H)-one] | –
26 | – | – | more active compound | CC[C@@]12COCCN1c1nc(-n3ccnc3-c3nccs3)ncc1N(C)C2=O [Example 387, (S)-6a-ethyl-5-methyl-2-(2-(thiazol-2-yl)-1H-imidazol-1-yl)-6a,7,9,10-tetrahydro-[1,4]oxazino[3,4-h]pteridin-6(5H)-one] | –
27 | 10 to 50 | – | – | CC[C@@H]1C(=O)N(C)c2cnc(-n3ccnc3)nc2N1C1CC(F)(F)C1 [Example 303, (R)-8-(3,3-difluorocyclobutyl)-7-ethyl-2-(1H-imidazol-1-yl)-5-methyl-7,8-dihydropteridin-6(5H)-one] | IC50 [3, 4]: 10 to 50 µM
28 | – | – | more active compound | CC[C@@H]1C(=O)N(C)c2cnc(-n3ccnc3-c3ccccc3)nc2N1c1cnn(C)c1 [Example 409, (R)-7-ethyl-5-methyl-8-(1-methyl-1H-pyrazol-4-yl)-2-(2-phenyl-1H-imidazol-1-yl)-7,8-dihydropteridin-6(5H)-one] | –
29 | > 50 | > 50 | – | CC[C@@H]1C(=O)N(C)c2cnc(-n3cc[n+](C)c3C)nc2N1C1CCCC1 [Example 28, (R)-1-(8-cyclopentyl-7-ethyl-5-methyl-6-oxo-5,6,7,8-tetrahydropteridin-2-yl)-2,3-dimethyl-1H-imidazol-3-ium] | –
30 | – | – | more active compound | CC[C@@]12CN(C)CCN1c1nc(-n3ccnc3-c3ccccc3)ncc1N(C)C2=O [Example 374, (S)-6a-ethyl-5,8-dimethyl-2-(2-phenyl-1H-imidazol-1-yl)-7,8,9,10-tetrahydro-5H-pyrazino[2,1-h]pteridin-6(6aH)-one] | –
31 | 1 to 10 | 1 to 10 | – | CC[C@@H]1C(=O)N(C)c2cnc(-c3ccccc3)nc2N1C1CCCC1 [Example 12, (R)-8-cyclopentyl-7-ethyl-5-methyl-2-phenyl-7,8-dihydropteridin-6(5H)-one] | –
32 | – | – | more active compound | CC[C@@]12COCCN1c1nc(-c3cn[nH]c3-c3ccc(F)cc3F)ncc1N(C)C2=O [Example 411, (S)-2-(5-(2,4-difluorophenyl)-1H-pyrazol-4-yl)-6a-ethyl-5-methyl-6a,7,9,10-tetrahydro-[1,4]oxazino[3,4-h]pteridin-6(5H)-one] | –

Row | Compound | IC50 [1] [µM] | IC50 [2] [µM] | relative PLK2 activity of the enantiomers [2] | other results
33 | CC[C@@H]1C(=O)N(C)c2cnc(-n3cc(C(=O)NC)cn3)nc2N1C1CCCC1 [Example 40, (R)-1-(8-cyclopentyl-7-ethyl-5-methyl-6-oxo-5,6,7,8-tetrahydropteridin-2-yl)-N-methyl-1H-pyrazole-4-carboxamide] | – | 1 to 10 | – | –
